ChEMBL document CHEMBL2069189, “Discovery of checkpoint kinase inhibitor (S)-5-(3-fluorophenyl)-N-(piperidin-3-yl)-3-ureidothiophene-2-carboxamide (AZD7762) by structure-based design and optimization of thiophenecarboxamide ureas” (J Med Chem, 2012)

Key:
[1] = Lipophilicity, log D of the compound; format: physicochemical; conditions: octanol/water
[2] = Fraction unbound in human plasma; format: ADME, cell-free
[3] = target: T1, Serine/threonine-protein kinase Chk1 (Homo sapiens, UniProt O14757); assay: Inhibition of human recombinant CHK1 expressed in insect cells using biotinylaminohexanoyl-KKVSRSGLYRSPMPENLNRPR as substrate after 2 hrs by scintillation proximity assay
T1 sequence (O14757 whole entry): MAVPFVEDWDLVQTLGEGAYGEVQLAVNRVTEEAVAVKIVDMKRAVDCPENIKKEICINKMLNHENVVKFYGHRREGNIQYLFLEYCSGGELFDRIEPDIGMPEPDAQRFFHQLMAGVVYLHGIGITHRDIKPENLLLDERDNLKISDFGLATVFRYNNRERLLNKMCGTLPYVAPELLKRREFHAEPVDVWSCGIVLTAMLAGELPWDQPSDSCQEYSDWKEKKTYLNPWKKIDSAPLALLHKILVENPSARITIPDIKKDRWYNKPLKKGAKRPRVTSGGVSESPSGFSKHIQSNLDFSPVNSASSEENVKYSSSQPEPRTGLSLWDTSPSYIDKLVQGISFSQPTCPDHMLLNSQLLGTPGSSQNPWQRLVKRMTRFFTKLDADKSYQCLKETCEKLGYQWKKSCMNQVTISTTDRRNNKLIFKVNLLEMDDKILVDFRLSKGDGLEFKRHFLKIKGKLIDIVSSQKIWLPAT

[4] = Half life in nude mouse; format: ADME, organism-based; conditions: in vivo
[5] = Volume of distribution at steady state in nude mouse; format: ADME, organism-based; conditions: in vivo, read-out: Vdss
[6] = Clearance in nude mouse; format: ADME, organism-based; conditions: in vivo
[7] = AUC in nude mouse; format: ADME, organism-based; parameters: concentration or dose not given beside the values; conditions: plasma
CYP450 = CYP450 (Homo sapiens, UniProt P04798+P05177+P05181+P08684+P10632+P10635+P11509+P11712+P13584+P20813+P20815+P20853+P24462+P24903+P33260+P33261+P51589+P78329+P98187+Q02928+Q08477+Q16678+Q16696+Q5TCH4+Q6VVX0+Q7Z449+Q8TAV3+Q96SQ9+Q9HB55); assay: Inhibition of CYP450; format: ADME
[8] = Clearance in rat; format: ADME, organism-based; conditions: in vivo
[9] = target: Serine/threonine-protein kinase Chk2 (Homo sapiens, UniProt O96017); assay: Inhibition of CHK2
Sequence of Serine/threonine-protein kinase Chk2 (O96017 whole entry): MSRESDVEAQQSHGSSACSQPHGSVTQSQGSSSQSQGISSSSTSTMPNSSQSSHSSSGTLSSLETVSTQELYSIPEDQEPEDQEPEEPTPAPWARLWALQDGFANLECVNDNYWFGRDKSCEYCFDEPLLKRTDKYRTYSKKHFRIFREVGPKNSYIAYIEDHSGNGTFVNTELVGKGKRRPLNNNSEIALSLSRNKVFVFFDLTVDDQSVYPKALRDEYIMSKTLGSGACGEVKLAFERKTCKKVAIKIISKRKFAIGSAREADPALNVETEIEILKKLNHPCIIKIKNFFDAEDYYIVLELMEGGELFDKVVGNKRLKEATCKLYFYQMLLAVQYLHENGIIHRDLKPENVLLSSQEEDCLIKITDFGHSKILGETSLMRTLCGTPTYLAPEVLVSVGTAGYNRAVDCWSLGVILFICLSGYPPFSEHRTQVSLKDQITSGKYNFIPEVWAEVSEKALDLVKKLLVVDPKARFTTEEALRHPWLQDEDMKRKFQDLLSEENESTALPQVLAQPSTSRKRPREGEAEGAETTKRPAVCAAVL

[10] = Thermodynamic solubility of the compound in 0.1 M phosphate buffer at pH 7.4; format: physicochemical; conditions: read-out: Therm_solubility
[11] = Half life in dog; format: ADME, organism-based, Canis lupus familiaris; conditions: in vivo
[12] = Half life in rat; format: ADME, organism-based; conditions: in vivo
[13] = Clearance in dog; format: ADME, organism-based, Canis lupus familiaris; conditions: in vivo

SMILES | IC50 [3] [nM] | half-life [4] [min] | Vd [5] [L/kg] | clearance [6] [mL/min/kg] | AUC [7] [µM·h] | further results
NC(=O)Nc1cc(-c2ccccc2F)sc1C(=O)N[C@H]1CCCNC1 | 20 |  |  |  |  | 
Cl.NC(=O)Nc1sc(-c2cccc(F)c2)cc1C(=O)N[C@H]1CCCNC1 |  | 60 | 2.8 | 33 | 3.8 | 
Cl.NC(=O)Nc1sc(-c2ccc(F)cc2)cc1C(=O)N[C@H]1CCCNC1 |  | 72 | 6.1 | 81 | 1.5 | 
Cl.NC(=O)Nc1cc(-c2cccc(F)c2F)sc1C(=O)N[C@H]1CCCNC1 | 20 | 84 | 7.7 | 85 | 1.4 | 
NC(=O)Nc1cc(-c2ccc(F)cc2F)sc1C(=O)N[C@H]1CCCNC1 | 30 |  |  |  |  | 
NC(=O)Nc1sc(-c2ccc(Cl)c(Cl)c2)cc1C(=O)N[C@H]1CCCNC1 | 30 |  |  |  |  | 
NC(=O)Nc1cc(-c2ccc(Cl)c(Cl)c2)sc1C(=O)N[C@H]1CCCNC1 | 40 |  |  |  |  | 
NC(=O)Nc1sc(-c2ccccc2)cc1C(=O)N[C@H]1CCCNC1 |  |  |  |  |  | fraction unbound [2]: 0.077
NC(=O)Nc1cc(-c2cccc(F)c2)sc1C(=O)N[C@H]1CCCNC1 [AZD-7762] |  | 66 | 3.9 | 50 | 2.5 | IC50 (CYP450): > 10 µM; logD [1]: 1.2; clearance [8]: 12.8 mL/min/kg; IC50 [9]: < 10 nM; solubility thermodynamic [10]: > 1000 µM; half-life [11]: 90 min; half-life [12]: 312 min; clearance [13]: 35.7 mL/min/kg; fraction unbound [2]: 0.26

Further compounds by falling IC50 [3], results first:

IC50 [3] [nM] | half-life [4] [min] | Vd [5] [L/kg] | clearance [6] [mL/min/kg] | AUC [7] [µM·h] | SMILES | further results
13 |  |  |  |  | NC(=O)Nc1sc(-c2ccc(F)cc2F)cc1C(=O)N[C@H]1CCCNC1 | 
12 |  |  |  |  | NC(=O)Nc1sc(-c2cc(F)cc(F)c2)cc1C(=O)N[C@H]1CCCNC1 | 
11 | 72 | 4.5 | 71 | 1.7 | Cl.NC(=O)Nc1sc(-c2cccc(F)c2F)cc1C(=O)N[C@H]1CCCNC1 | 
10 |  |  |  |  | NC(=O)Nc1cc(-c2ccccc2)sc1C(=O)N[C@H]1CCCNC1 | logD [1]: 1.04; fraction unbound [2]: 0.32
10 |  |  |  |  | NC(=O)Nc1cc(-c2cc(F)cc(F)c2)sc1C(=O)N[C@H]1CCCNC1 | 
9 |  |  |  |  | N#Cc1cccc(-c2cc(C(=O)N[C@H]3CCCNC3)c(NC(N)=O)s2)c1 | 
8 |  |  |  |  | NC(=O)Nc1cc(-c2cccc(Cl)c2)sc1C(=O)N[C@H]1CCCNC1 | 
7 |  |  |  |  | N#Cc1cccc(-c2cc(NC(N)=O)c(C(=O)N[C@H]3CCCNC3)s2)c1 | 
6 | 72 | 8.5 | 86 | 1.46 | Cl.NC(=O)Nc1cc(-c2ccc(F)cc2)sc1C(=O)N[C@H]1CCCNC1 | 
6 |  |  |  |  | N#Cc1ccc(-c2cc(NC(N)=O)c(C(=O)N[C@H]3CCCNC3)s2)cc1 | 
